A short description of series [1]: Release testing of betaine leaching from shrimp feed pellets in artificial seawater. It counts as physicochemical. The procedure: An aquafeed comprising the composition of the invention (or the composition itself) is placed in a rotating basket and immersed in 500 ml of artificial seawater (547.6 mM NaCl, 56.8 mM MgSO4.7H2O, 2.4 mM NaHCO3, adjusted to pH 8,2 with 1M NaOH), and held at 30° C. Aliquots of sample are withdrawn at selected time-points (1, 3, 5, 10, 15, 30, 45, 60 and 90 minutes). The volume of dissolution media is held constant through the re-addition of aliquots (30° C.) of fresh media to compensate. The aliquots are analysed by a suitable analytical technique (e.g. HPLC) in order to determine the concentration of the hydro-soluble component in the dissolution media.
An aquafeed sample (30 g) was placed in a rotating basket and immersed in 500 ml of artificial seawater (pH 8,2), held at 30° C. 5 ml aliquots of sample were withdrawn at selected time-points (1, 3, 5, 10, 15, 30, 45, 60 and 90 minutes). The volume of dissolution media was held constant (500 ml) through the re-addition of 5 ml aliquots of fresh media (30° C.). These samples were filtered on […], frozen and analysed by HPLC in Advanced Analysis.
Release curves (see FIGS. 1 to 3) show the amount of betaine leached as a percentage of weight of available net betaine (% w/w).

The conditions of series [2]: pure form; water and lower alcohols; cited from earlier work.

Turning to `C[N+](C)(C)CC(=O)[O-]` [Betafin BT, trimethylglycine], the “proportion of available betaine leached over 90 minutes” value in series [1] (pellets with increased betaine content (c. 5 and 10 kg/T, FIGS. 2 and 3), artificial seawater pH 8,2, 30° C., 90 minutes) is listed as at most 40%. Further, the “leach profile of pellets (comparison in words)” value in series [1] (shrimp feed pellets c. 2, 5 and 10 kg betaine/T, artificial seawater, 30° C., up to 90 minutes) was “fastest and most extensive leaching”. In series [1] (shrimp feed pellets prepared with c. 2 kg betaine/T, artificial seawater pH 8,2, 30° C., 90 minutes, FIG. 1), the “available betaine dissolved after 90 minutes” value is on record as at most 60%. Further, in series [2], the “solubility (in words)” value is “readily soluble in water and lower alcohols”.

These data come from patent US20170135378A1, “COMPOSITION AND USE THEREOF” (DUPONT NUTRITION BIOSCIENCES APS, priority 2014, published 2017).
